Assay results reported in patent US20040024024A1, “Aromatic sulfone hydroxamates and their use as protease inhibitors” (priority 2001, published 2004).
Where “and” joins values, the source holds several entries; their conditions need not be identical. Equal entries are not always repeated. Structures can show the parent of a compound that is named as a salt.

Key:
[1] = target: T1, Human recombinant MMP-2 (Homo sapiens, UniProt P08253); test: In vitro MMP inhibition, Ki determination (fluorogenic substrate II); type: biochemical
T1 construct: made in house; host or cells: MMP-2-transfected p2AHT2 cells
T1 sequence (P08253 110-660): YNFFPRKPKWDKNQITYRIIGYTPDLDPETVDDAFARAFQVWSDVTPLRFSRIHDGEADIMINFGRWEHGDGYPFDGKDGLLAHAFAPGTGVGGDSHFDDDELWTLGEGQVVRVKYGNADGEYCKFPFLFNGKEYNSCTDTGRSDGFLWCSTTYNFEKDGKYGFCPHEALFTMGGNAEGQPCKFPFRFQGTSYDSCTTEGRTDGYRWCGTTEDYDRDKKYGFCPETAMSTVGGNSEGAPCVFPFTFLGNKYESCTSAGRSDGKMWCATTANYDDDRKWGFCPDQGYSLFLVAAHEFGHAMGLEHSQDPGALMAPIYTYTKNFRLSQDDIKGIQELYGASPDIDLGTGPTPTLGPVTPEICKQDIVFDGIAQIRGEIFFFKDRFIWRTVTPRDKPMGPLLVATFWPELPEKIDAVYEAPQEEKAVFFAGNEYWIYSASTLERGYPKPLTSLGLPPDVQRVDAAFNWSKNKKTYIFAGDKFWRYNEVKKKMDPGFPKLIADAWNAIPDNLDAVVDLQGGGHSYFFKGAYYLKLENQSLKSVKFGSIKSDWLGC
Protocol: (§1) Several hydroxamates and salts thereof were analyzed in in vitro assays to determine their ability to inhibit the MMP cleavage of peptide substrates. Inhibition (Ki) and IC50 constants were calculated from the assayed hydroxamate-MMP interactions.
(§2) Human recombinant MMP-1, MMP-2, MMP-9, MMP-13, and MMP-14 were used in this assay. All enzymes were prepared in Assignee's laboratories following usual laboratory procedures. Protocols for the preparation and use of these enzymes are available in the scientific literature. See, e.g., Enzyme Nomenclature (Academic Press, San Diego, Calif., 1992) (and the citations therein). See also, Frije et al., J. Biol. Chem., 26(24), 16766-73 (1994).
The MMP-2 proenzyme was purified by gelatin Sepharose chromatography from MMP-2-transfected p2AHT2 cells provided by Dr. Gregory Goldberg of Washington University (St. Louis, Mo.).
(§3) All MMPs were activated using 4-aminophenylmercuric acetate (“APMA”, Sigma Chemical, St. Louis, Mo.) or trypsin. MMP-9 also was activated using human recombinant MMP-3 (purified in Assignee's laboratory following standard cloning and purification techniques).
(§4) Two fluorogenic, methoxycoumarin-containing polypeptide substrates were used in the MMP inhibition assays:
(§5) MCA-ArgProLeuGlyLeuDpaAlaArgGluArgNH2 (II)
(§6) Here, “Dpa” is 3-(2,4-dinitrophenyl)-L-2,3-diaminopropionyl group, and “MCA” is 7-methoxycoumarin-4-yl acetyl. Substrate (I) was purchased from Baychem (Redwood City, Calif.), and substrate II was prepared Assignee's laboratory. Substrate I was used in the IC50 determination assays, while substrate II was used in the Ki determination assays. In the absence of MMP inhibitory activity, either substrate is cleaved at the Gly-Leu peptide bond. This cleavage separates the highly fluorogenic peptide from the 2,4-dinitrophenyl quencher, thus resulting in increase of fluorescent intensity.
(§7) The stock solutions of the assayed hydroxamates (or salts thereof) were prepared in 1% dimethyl sulfoxide (DMSO). These stock solutions were diluted in Buffer A (100 mM Tris-HCl, 100 mM NaCl, 10 mM CaCl2, 0.05% polyoxyethylene 23 lauryl ether, pH 7.5) to obtain solutions with different hydroxamate concentrations, i.e., assay solutions with different concentrations of the assayed MMP inhibitory compound. The experiment controls contained the same amount of Buffer A/DMSO as the assayed sample, but contained no hydroxamate (or salt thereof).
The assays from which the Ki determinations were made were performed as follows. The assayed hydroxamate samples were incubated in separate wells of untreated white polystyrene plates (Nunc Nalgene International, Rochester, N.Y.), and analyzed on a Tecan SpectraFlour Plus plate reader. The excitation wavelength was 330 nm, and the emission wavelength—420 nm. All samples (assayed hydroxamates and controls) were incubated in separate plate wells at room temperature for 1 hr in the presence of 4 μM of MMP substrate (II). In the absence of MMP inhibitory activity, substrate II was cleaved at the Gly-Leu bond resulting in an increase of relative fluorescence. Inhibition was observed as a reduced rate of this increase in relative fluorescence. The various hydroxamates were analyzed using a single low enzyme concentration with a single substrate concentration fixed at or below the Km. This protocol is a modification of method by Knight et al., FEBS Lett., 296(3), 263-266 (1992). Apparent inhibitory constants were determined by non-linear regression of reaction velocity as a function of inhibitor and enzyme concentration using Morrison's equation, as described by Kuzmic, Anal. Biochem. 286, 45-50 (2000). […] Since the substrate concentration was chosen to be at or below the Km, the apparent Ki's from this analysis were reported as Ki's without correction for the influence of substrate.

[2] = target: T2, Human recombinant MMP-14 (Homo sapiens, UniProt P50281); test: as above; type: biochemical
T2 construct: The catalytic domain enzyme was expressed in E. coli inclusion bodies, solubilized in urea; made in house
Protocol: as §1, §2
The MMP-14 full length cDNA was provided by Dr. Gregory Goldberg of Washington University (St. Louis, Mo.). The catalytic domain enzyme was expressed in E. coli inclusion bodies, solubilized in urea, purified on a preparative […] reverse phase HPLC column, and then refolded in the presence of zinc acetate and purified for use.
as §3, §4, §5, §6, §7
The assays from which the Ki determinations were made were performed as follows. The assayed hydroxamate samples were incubated in separate wells of untreated white polystyrene plates (Nunc Nalgene International, Rochester, N.Y.), and analyzed on a Tecan SpectraFlour Plus plate reader. The excitation wavelength was 330 nm, and the emission wavelength—420 nm. All samples (assayed hydroxamates and controls) were incubated in separate plate wells at room temperature for 1 hr in the presence of 4 μM of MMP substrate (II). In the absence of MMP inhibitory activity, substrate II was cleaved at the Gly-Leu bond resulting in an increase of relative fluorescence. Inhibition was observed as a reduced rate of this increase in relative fluorescence. The various hydroxamates were analyzed using a single low enzyme concentration with a single substrate concentration fixed at or below the Km. This protocol is a modification of method by Knight et al., FEBS Lett., 296(3), 263-266 (1992). Apparent inhibitory constants were determined by non-linear regression of reaction velocity as a function of inhibitor and enzyme concentration using Morrison's equation, as described by Kuzmic, Anal. Biochem. 286, 45-50 (2000). Modifications were made in the non-linear regression method to allow a common control reaction rate and effective enzyme concentration to be shared between all dose-response relationships on a given assay plate. […]

[3] = substrate (II) 4 μM, 1 hr room temperature, apparent Ki, values in parenthesis

| Ki ([1]; value in parenthesis) | Ki ([2]; value in parenthesis) | Ki ([1]; value in parentheses) | Ki ([2]; value in parentheses) | Structure (SMILES) | also measured |
| --- | --- | --- | --- | --- | --- |
| 30.7 nM | > 10 µM |  |  | O=C(NO)C1(S(=O)(=O)c2ccc(OCCCc3ccnc(-c4ccccc4)c3)cc2)CCOCC1 [Example 197] |  |
|  |  | 2750 nM | > 10 µM | O=C(NO)C1(S(=O)(=O)c2ccc(OCCCc3cccc(-c4ccc5c(c4)OCO5)c3)cc2)CCOCC1 [Example 628] |  |
|  |  | 4680 nM | > 10 µM | C=Cc1ccc(-c2cccc(CCCOc3ccc(S(=O)(=O)C4(C(=O)NO)CCOCC4)cc3)c2)cc1 [Example 635] |  |
| 51.3 nM | 1.67 µM |  |  | O=C(NO)C1(S(=O)(=O)c2ccc(OCCc3cccc(-c4cccnc4)c3)cc2)CCOCC1 [Example 125] |  |
| 625 nM | > 10 µM |  |  | O=C(NO)C1(S(=O)(=O)c2ccc(OCCCc3cccc(Cc4ccccc4)c3)cc2)CCOCC1 [Example 98] |  |
|  |  | 586 nM | > 10 µM | O=C(NO)C1(S(=O)(=O)c2ccc(OCCCc3cccc(-c4cccs4)c3)cc2)CCOCC1 [Example 595] |  |
| 2160 nM | > 10 µM |  |  | Cc1ccc(-c2cccc(CCOc3ccc(S(=O)(=O)C4(C(=O)NO)CCOCC4)cc3)c2)cc1 [Example 127] |  |
|  |  | 645 nM | > 10 µM | O=C(NO)C1(S(=O)(=O)c2ccc(OCCCc3cccc(-c4ccc([N+](=O)[O-])cc4)c3)cc2)CCOCC1 [Example 626] |  |
|  |  | 498 nM | > 10 µM | O=C(NO)C1(S(=O)(=O)c2ccc(OCCCc3cccc(-c4ccoc4)c3)cc2)CCOCC1 [Example 637] |  |
|  |  | 3950 nM | > 10 µM | O=C(NO)C1(S(=O)(=O)c2ccc(OCCCc3cccc(-c4ccc5c(c4)OCCO5)c3)cc2)CCOCC1 [Example 627] |  |
| > 10000 nM | > 10 µM |  |  | CC(C)c1ccc(-c2cccc(CCCOc3ccc(S(=O)(=O)C4(C(=O)NO)CCOCC4)cc3)c2)cc1 [Example 160] |  |
|  |  | 8120 nM | > 10 µM | O=C(NO)C1(S(=O)(=O)c2ccc(OCCCc3cccc(-c4cccc5ccccc45)c3)cc2)CCOCC1 [Example 638] |  |
|  |  | 527 nM | > 10 µM | O=C(NO)C1(S(=O)(=O)c2ccc(OCCCc3cccc(-c4ccccc4O)c3)cc2)CCOCC1 [Example 636] |  |
| 33.9 nM | 3.91 µM |  |  | O=C(NO)C1(S(=O)(=O)c2ccc(OCCCc3cccc(Br)c3)cc2)CCOCC1 [Example 154] |  |

Further lines, the molecule ahead of its results:

| Structure (SMILES) | Ki ([1]; value in parenthesis) | Ki ([2]; value in parenthesis) | Ki ([1]; value in parentheses) | Ki ([2]; value in parentheses) | also measured |
| --- | --- | --- | --- | --- | --- |
| COCCN1CCC(C(=O)NO)(S(=O)(=O)c2ccc(OCCCc3nc(-c4ccc(OC(F)(F)F)cc4)no3)cc2)CC1 [Example 42] |  |  |  |  | Ki [1, 3]: 186 nM; Ki [2, 3]: > 10 µM |
| COCCN1CCC(C(=O)NO)(S(=O)(=O)c2ccc(OCCCc3nc(-c4ccc(CC(C)C)cc4)no3)cc2)CC1 [Example 175] | 872 nM | > 10 µM |  |  |  |
| CCN1CCC(C(=O)NO)(S(=O)(=O)c2ccc(OCCCc3nc(-c4ccc(OC(F)(F)F)cc4)no3)cc2)CC1 [Example 41, 1-ethyl-N-hydroxy 4-{[4-(3-{3-[4-(trifluoromethoxy)phenyl]-1,2,4-oxadiazol-5-yl}propoxy)phenyl]sulfonyl}piperidine-4-carboxamide Hydrochloride] |  |  |  |  | Ki [1, 3]: 415 nM; Ki [2, 3]: > 10 µM |
| O=C(NO)C1(S(=O)(=O)c2ccc(OCCCc3nc(-c4ccccc4)no3)cc2)CCOCC1 [Example 584] |  |  | 20.8 nM | 6.63 µM |  |
| COCCN1CCC(C(=O)NO)(S(=O)(=O)c2ccc(OCCCc3cc(-c4ccc(F)cc4F)cs3)cc2)CC1 [Example 47, 4-[(4-{3-[4-(2,4-difluorophenyl)thien-2-l]propoxy}phenyl)sulfonyl]-N-hydroxy-1-(2-methoxyethyl)piperidine-4-carboxamide Hydrochloride] |  |  |  |  | Ki [1, 3]: 19.2 nM and 46.5 nM; Ki [2, 3]: 3.32 µM and 5.29 µM |
| CCN1CCC(C(=O)NO)(S(=O)(=O)c2ccc(OCCCc3cccc(-c4ccccc4)c3)cc2)CC1 [Example 46] |  |  |  |  | Ki [1, 3]: 786 nM; Ki [2, 3]: > 10 µM |
| O=C(CCCOc1ccc(S(=O)(=O)C2(C(=O)NO)CCOCC2)cc1)Nc1ccc(OC(F)(F)F)cc1 [Example 228] | 22.4 nM | 6.29 µM |  |  |  |
| O=C(Cc1csc2ccccc12)NCCOc1ccc(S(=O)(=O)C2(C(=O)NO)CCOCC2)cc1 [Example 596] |  |  | 11.2 nM | 1.16 µM |  |
| Cc1cc(OC(F)(F)F)ccc1NC(=O)CCCOc1ccc(S(=O)(=O)C2(C(=O)NO)CCOCC2)cc1 [Example 229] | 10.4 nM | 7.87 µM |  |  |  |
| COCCN1CCC(C(=O)NO)(S(=O)(=O)c2ccc(OCCCc3nnc(-c4ccccc4C(F)(F)F)o3)cc2)CC1 [Example 178] | 39.3 nM | > 10 µM |  |  |  |
| O=C(NO)C1(S(=O)(=O)c2ccc(OCCCc3nc(-c4ccc(OC(F)(F)F)cc4)no3)cc2)CCN(C2CC2)CC1 [Example 51, 1-cyclopropyl-N-hydroxy-4-{[4-(3-{3-[4-(trifluoromethoxy)phenyl]-1,2,4-oxadiazol-5-yl}propoxy)phenyl]sulfonyl}piperidine-4-carboxamide Hydrochloride] |  |  |  |  | Ki [1, 3]: 93.7 nM; Ki [2, 3]: 0.688 µM |
| COCCN1CCC(C(=O)NO)(S(=O)(=O)c2ccc(OCCCc3cccc(-c4ccc(F)cc4)c3)cc2)CC1 [Example 140] | 708 nM | > 10 µM |  |  |  |
| CC(C)c1cccc(NC(=O)CCCOc2ccc(S(=O)(=O)C3(C(=O)NO)CCOCC3)cc2)c1 [Example 182] | 34.3 nM | 5.85 µM |  |  |  |
| O=C(NO)C1(S(=O)(=O)c2ccc(OCCCc3nc(-c4ccc(OC(F)(F)F)cc4)no3)cc2)CCOCC1 [Example 31, tetrahydro-N-hydroxy-4-[[4-[3-[3[4-(trifluoromethoxy)phenyl]-1,2,4-oxadiazol-5-yl]propoxy]phenyl]sulfonyl]-2H-pyran-4-carboxamide] |  |  |  |  | Ki [1, 3]: 413 nM; Ki [2, 3]: > 10 µM |
